This is an account of results in PubChem BioAssay (NCI).

Where “and” joins values, the source holds several entries; their conditions need not be identical. Identical values can stand only once.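 How tested: cells in 96-well plates exposed to compound for 48 hours at five concentrations. Abbreviation: GI50, concentration required for 50% inhibition of growth. Definition used: TGI = concentration required for complete inhibition of growth.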

The test system of one experiment is MDA-N. Description: NCI-60 cell line screen, 48 h.
`COC(=O)C1(Cc2ccccc2)Cc2cc3c(cc2C1=O)CCC3` (centres undefined) showed a TGI of 37.3 µM.

In the case of `COc1ccc(N2C(=O)C3c4[nH]c5ccc([N+](=O)[O-])cc5c4C4CCC(C(C)(C)C)CC4C3C2=O)cc1` (centres undefined), the TGI is > 100 µM.

With `O=C(O)c1ccc(NC(c2ccccc2)c2ccc3cccnc3c2O)cc1` (centres undefined), the TGI was > 100 µM.

With `COc1ccc(-c2c(C#N)c(N)n(C3OC(CO)C(O)C(O)C3O)c(=S)c2C#N)cc1` (centres undefined), the TGI is > 100 µM.

For `CCOC(=O)c1sc2nc(SC)nc3c2c1N=CN3c1ccc(Br)cc1`, the TGI was > 100 µM.

Take `CC[C@@H]1CC[C@@H]2[C@H](CC[C@]3(C)[C@@H](O)CC[C@@H]23)[C@H]1C(=O)O`: the TGI is > 100 µM.

As for `Nc1nc(Cl)cc(NCC2(CO)CC(CCc3ccccc3)C2)n1` (centres undefined), the TGI was > 100 µM.

On to `c1cc2nnc1SCCSCCSc1ccc(nn1)SCCSCCS2`, for which the TGI is > 100 µM.

On to `COc1ccc(-c2c(C#N)c(S)n(C3OC(COC(C)=O)C(OC(C)=O)C(OC(C)=O)C3OC(C)=O)c(=O)c2C#N)cc1` (centres undefined), for which the GI50 was > 100 µM and 34.8 µM; the TGI is > 100 µM.

Take `c1sc(NC2=NCCO2)c2c1CCCC2`: the TGI was > 100 µM.

With `Cc1c(Cl)ccc2c(=O)c3cccc(CC(=O)O)c3oc12`, the TGI is > 100 µM.

As to `CC(=O)C(CN1CCCCC1)C(c1ccccc1)c1c(O)c2ccccc2oc1=O` (centres undefined), the TGI is > 100 µM.

`O=C(NS(=O)(=O)Nc1ccc(Cl)cc1)OCc1ccc(Cl)cc1Cl` yielded a TGI of 50.3 µM.

The next experiment has as its system A498 renal. In words: NCI-60 cell line screen, 48 h.
`COC(=O)C1(Cc2ccccc2)Cc2cc3c(cc2C1=O)CCC3` (centres undefined) yielded a TGI of 82 µM.

`COc1ccc(N2C(=O)C3c4[nH]c5ccc([N+](=O)[O-])cc5c4C4CCC(C(C)(C)C)CC4C3C2=O)cc1` (centres undefined): the TGI came to 7.56 µM.

Turning to `O=C(O)c1ccc(NC(c2ccccc2)c2ccc3cccnc3c2O)cc1` (centres undefined), the TGI is 78.4 µM.

`COc1ccc(-c2c(C#N)c(N)n(C3OC(CO)C(O)C(O)C3O)c(=S)c2C#N)cc1` (centres undefined): the TGI was > 100 µM.

Consider `CCOC(=O)c1sc2nc(SC)nc3c2c1N=CN3c1ccc(Br)cc1`, for which the TGI is > 100 µM.

On to `CC[C@@H]1CC[C@@H]2[C@H](CC[C@]3(C)[C@@H](O)CC[C@@H]23)[C@H]1C(=O)O`, for which the TGI was > 100 µM.

Regarding `Nc1nc(Cl)cc(NCC2(CO)CC(CCc3ccccc3)C2)n1` (centres undefined), the TGI was > 100 µM.

On to `c1cc2nnc1SCCSCCSc1ccc(nn1)SCCSCCS2`, for which the TGI was > 100 µM.

Turning to `COc1ccc(-c2c(C#N)c(S)n(C3OC(COC(C)=O)C(OC(C)=O)C(OC(C)=O)C3OC(C)=O)c(=O)c2C#N)cc1` (centres undefined), the TGI was 90.5 µM and 77.3 µM.

Regarding `c1sc(NC2=NCCO2)c2c1CCCC2`, the TGI was > 100 µM.

Take `Cc1c(Cl)ccc2c(=O)c3cccc(CC(=O)O)c3oc12`: the TGI is > 100 µM.

`CC(=O)C(CN1CCCCC1)C(c1ccccc1)c1c(O)c2ccccc2oc1=O` (centres undefined): the TGI was > 100 µM.

In the case of `O=C(NS(=O)(=O)Nc1ccc(Cl)cc1)OCc1ccc(Cl)cc1Cl`, the TGI turned out to be 38.8 µM.

The test system of a further experiment is MOLT-4 leukemia. Description: NCI-60 cell line screen, 48 h.
For the compound `COC(=O)C1(Cc2ccccc2)Cc2cc3c(cc2C1=O)CCC3` (centres undefined), the TGI was 43.1 µM.

As to `COc1ccc(N2C(=O)C3c4[nH]c5ccc([N+](=O)[O-])cc5c4C4CCC(C(C)(C)C)CC4C3C2=O)cc1` (centres undefined), the TGI was > 100 µM.

As to `O=C(O)c1ccc(NC(c2ccccc2)c2ccc3cccnc3c2O)cc1` (centres undefined), the TGI is > 42.6 µM.

As to `COc1ccc(-c2c(C#N)c(N)n(C3OC(CO)C(O)C(O)C3O)c(=S)c2C#N)cc1` (centres undefined), the TGI is > 100 µM.

With `CCOC(=O)c1sc2nc(SC)nc3c2c1N=CN3c1ccc(Br)cc1`, the TGI is > 100 µM.

With `CC[C@@H]1CC[C@@H]2[C@H](CC[C@]3(C)[C@@H](O)CC[C@@H]23)[C@H]1C(=O)O`, the TGI is > 100 µM.

As to `Nc1nc(Cl)cc(NCC2(CO)CC(CCc3ccccc3)C2)n1` (centres undefined), the TGI is > 100 µM.

On to `c1cc2nnc1SCCSCCSc1ccc(nn1)SCCSCCS2`, for which the TGI was > 100 µM.

Take `COc1ccc(-c2c(C#N)c(S)n(C3OC(COC(C)=O)C(OC(C)=O)C(OC(C)=O)C3OC(C)=O)c(=O)c2C#N)cc1` (centres undefined): the GI50 was > 100 µM and 39.2 µM; the TGI was > 100 µM.

For `c1sc(NC2=NCCO2)c2c1CCCC2`, the TGI is > 100 µM.

In the case of `Cc1c(Cl)ccc2c(=O)c3cccc(CC(=O)O)c3oc12`, the TGI was > 100 µM.

In the case of `CC(=O)C(CN1CCCCC1)C(c1ccccc1)c1c(O)c2ccccc2oc1=O` (centres undefined), the TGI was > 100 µM.

On to `O=C(NS(=O)(=O)Nc1ccc(Cl)cc1)OCc1ccc(Cl)cc1Cl`, for which the TGI is > 100 µM.

The next experiment concerns SNB-19 CNS. In words: NCI-60 cell line screen, 48 h.
For `COC(=O)C1(Cc2ccccc2)Cc2cc3c(cc2C1=O)CCC3` (centres undefined), the TGI is > 100 µM.

For `COc1ccc(N2C(=O)C3c4[nH]c5ccc([N+](=O)[O-])cc5c4C4CCC(C(C)(C)C)CC4C3C2=O)cc1` (centres undefined), the TGI is > 100 µM.

Consider `O=C(O)c1ccc(NC(c2ccccc2)c2ccc3cccnc3c2O)cc1` (centres undefined), for which the TGI was > 100 µM.

In the case of `COc1ccc(-c2c(C#N)c(N)n(C3OC(CO)C(O)C(O)C3O)c(=S)c2C#N)cc1` (centres undefined), the TGI is > 100 µM.

As to `CCOC(=O)c1sc2nc(SC)nc3c2c1N=CN3c1ccc(Br)cc1`, the TGI was > 100 µM.

Regarding `CC[C@@H]1CC[C@@H]2[C@H](CC[C@]3(C)[C@@H](O)CC[C@@H]23)[C@H]1C(=O)O`, the TGI is > 100 µM.

As for `Nc1nc(Cl)cc(NCC2(CO)CC(CCc3ccccc3)C2)n1` (centres undefined), the TGI is > 100 µM.

Turning to `c1cc2nnc1SCCSCCSc1ccc(nn1)SCCSCCS2`, the TGI is > 100 µM.

Consider `COc1ccc(-c2c(C#N)c(S)n(C3OC(COC(C)=O)C(OC(C)=O)C(OC(C)=O)C3OC(C)=O)c(=O)c2C#N)cc1` (centres undefined), for which the GI50 is 34.1 µM and 75.3 µM; the TGI was > 100 µM.

With `c1sc(NC2=NCCO2)c2c1CCCC2`, the TGI was > 100 µM.

`Cc1c(Cl)ccc2c(=O)c3cccc(CC(=O)O)c3oc12`: the TGI is > 100 µM.

Take `CC(=O)C(CN1CCCCC1)C(c1ccccc1)c1c(O)c2ccccc2oc1=O` (centres undefined): the TGI is > 100 µM.

In turn, `O=C(NS(=O)(=O)Nc1ccc(Cl)cc1)OCc1ccc(Cl)cc1Cl` displayed a TGI of 48.4 µM.

The next experiment concerns MDA-MB-231 breast. In words: NCI-60 cell line screen, 48 h.
`COC(=O)C1(Cc2ccccc2)Cc2cc3c(cc2C1=O)CCC3` (centres undefined): the TGI is > 100 µM.

For `COc1ccc(N2C(=O)C3c4[nH]c5ccc([N+](=O)[O-])cc5c4C4CCC(C(C)(C)C)CC4C3C2=O)cc1` (centres undefined), the TGI stood at 36.5 µM.

For the compound `O=C(O)c1ccc(NC(c2ccccc2)c2ccc3cccnc3c2O)cc1` (centres undefined), the TGI is > 61.4 µM.

Regarding `COc1ccc(-c2c(C#N)c(N)n(C3OC(CO)C(O)C(O)C3O)c(=S)c2C#N)cc1` (centres undefined), the TGI is > 100 µM.

`CCOC(=O)c1sc2nc(SC)nc3c2c1N=CN3c1ccc(Br)cc1`: the TGI is > 100 µM.

In the case of `CC[C@@H]1CC[C@@H]2[C@H](CC[C@]3(C)[C@@H](O)CC[C@@H]23)[C@H]1C(=O)O`, the TGI was > 100 µM.

On to `Nc1nc(Cl)cc(NCC2(CO)CC(CCc3ccccc3)C2)n1` (centres undefined), for which the TGI was > 100 µM.

For `c1cc2nnc1SCCSCCSc1ccc(nn1)SCCSCCS2`, the TGI is > 100 µM.

Consider `COc1ccc(-c2c(C#N)c(S)n(C3OC(COC(C)=O)C(OC(C)=O)C(OC(C)=O)C3OC(C)=O)c(=O)c2C#N)cc1` (centres undefined), for which the GI50 is 21.7 µM and 55 µM; the TGI was 83.5 µM and > 100 µM.

Regarding `c1sc(NC2=NCCO2)c2c1CCCC2`, the TGI is > 100 µM.

In the case of `Cc1c(Cl)ccc2c(=O)c3cccc(CC(=O)O)c3oc12`, the TGI was > 100 µM.

With `CC(=O)C(CN1CCCCC1)C(c1ccccc1)c1c(O)c2ccccc2oc1=O` (centres undefined), the TGI was > 100 µM.

`O=C(NS(=O)(=O)Nc1ccc(Cl)cc1)OCc1ccc(Cl)cc1Cl` yielded a TGI of 65.7 µM.

For the next experiment, the system named is HL-60(TB) leukemia. Description: NCI-60 cell line screen, 48 h.
Take `COC(=O)C1(Cc2ccccc2)Cc2cc3c(cc2C1=O)CCC3` (centres undefined): the TGI is 36.7 µM.

For the compound `COc1ccc(N2C(=O)C3c4[nH]c5ccc([N+](=O)[O-])cc5c4C4CCC(C(C)(C)C)CC4C3C2=O)cc1` (centres undefined), the TGI was determined as 33.5 µM.

`O=C(O)c1ccc(NC(c2ccccc2)c2ccc3cccnc3c2O)cc1` (centres undefined) came in with a TGI of 10.4 µM.

On to `COc1ccc(-c2c(C#N)c(N)n(C3OC(CO)C(O)C(O)C3O)c(=S)c2C#N)cc1` (centres undefined), for which the TGI was > 100 µM.

On to `CCOC(=O)c1sc2nc(SC)nc3c2c1N=CN3c1ccc(Br)cc1`, for which the TGI was > 100 µM.
